What was measured:
Type in all cases: biochemical
[1] = molecular target: T1, HCV NS3/4A protease complex, J4L6S strain (Hepatitis C virus genotype 1b, UniProt O92972, C1454S/C1711G); experiment: FRET peptide assay to monitor HCV NS3/4A proteolytic activity (J4L6S strain)
T1 construct: DNA encoding the recombinant HCV NS3/4A protease complex (amino acids 1027 to 1711) for these strains; inferred from the pET21b vector and Ni-NTA purification; made in house; host or cells: Escherichia coli BL21 (DE3), pET21b
T1 sequence (O92972 1027-1711 C1454S/C1711G, one chain of several): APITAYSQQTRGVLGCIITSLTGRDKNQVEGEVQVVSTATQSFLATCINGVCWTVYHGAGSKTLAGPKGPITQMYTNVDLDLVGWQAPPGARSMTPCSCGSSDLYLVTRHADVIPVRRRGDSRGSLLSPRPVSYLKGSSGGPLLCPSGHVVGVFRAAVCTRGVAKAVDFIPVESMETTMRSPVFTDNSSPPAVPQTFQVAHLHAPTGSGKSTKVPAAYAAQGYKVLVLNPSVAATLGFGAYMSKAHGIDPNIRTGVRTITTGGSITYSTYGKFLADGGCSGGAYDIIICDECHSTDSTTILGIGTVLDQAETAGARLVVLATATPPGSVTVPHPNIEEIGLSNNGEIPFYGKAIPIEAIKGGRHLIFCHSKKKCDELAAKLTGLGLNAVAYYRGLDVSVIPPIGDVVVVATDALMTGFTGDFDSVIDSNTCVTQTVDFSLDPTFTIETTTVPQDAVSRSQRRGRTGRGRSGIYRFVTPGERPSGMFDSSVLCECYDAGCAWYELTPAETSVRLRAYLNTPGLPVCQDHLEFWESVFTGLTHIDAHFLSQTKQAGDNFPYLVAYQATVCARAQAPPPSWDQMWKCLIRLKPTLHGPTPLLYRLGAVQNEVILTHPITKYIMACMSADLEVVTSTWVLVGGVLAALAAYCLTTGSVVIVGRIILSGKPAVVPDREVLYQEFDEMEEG
Description: (§1) HCV NS3 protease complexes, derived from the BMS strain, H77 strain or J4L6S strain, were generated, as described below. These purified recombinant proteins were generated for use in a homogeneous assay (see below) to provide an indication of how effective compounds of the present disclosure would be in inhibiting HCV NS3 proteolytic activity.
(§2) Serum from an HCV-infected patient was obtained from Dr. T. Wright, San Francisco Hospital. An engineered full-length cDNA (compliment deoxyribonucleic acid) template of the HCV genome (BMS strain) was constructed from DNA fragments obtained by reverse transcription-PCR (RT-PCR) of serum RNA (ribonucleic acid) and using primers selected on the basis of homology between other genotype 1a strains. From the determination of the entire genome sequence, a genotype 1a was assigned to the HCV isolate according to the classification of Simmonds et al. (See P Simmonds, K A Rose, S Graham, S W Chan, F McOmish, B C Dow, E A Follett, P L Yap and H Marsden, J. Clin. Microbiol., 31(6), 1493-1503 (1993)). […]

[2] = molecular target: T2, porcine pancreatic elastase (PPE) (Sus scrofa, UniProt P00772); experiment: Specificity assay, pancreatic elastase; conditions: read-out: PPE activity in the specificity assays
T2 construct: purchased Sigma or EMDbiosciences
T2 sequence (P00772 27-266): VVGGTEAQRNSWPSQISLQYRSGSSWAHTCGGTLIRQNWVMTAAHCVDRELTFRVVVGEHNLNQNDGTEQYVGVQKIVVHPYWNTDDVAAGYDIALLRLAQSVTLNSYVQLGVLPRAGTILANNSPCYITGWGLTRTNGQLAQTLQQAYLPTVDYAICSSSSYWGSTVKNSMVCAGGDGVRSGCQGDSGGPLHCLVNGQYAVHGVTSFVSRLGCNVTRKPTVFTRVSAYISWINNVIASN
Procedure: The specificities of compounds of the present disclosure were determined against a variety of serine proteases: human neutrophil elastase (HNE), porcine pancreatic elastase (PPE) and human pancreatic chymotrypsin and one cysteine protease: human liver cathepsin B. In all cases, a 96-well plate format protocol using colorimetric p-nitroaniline (pNA) substrate or fluorometric Amino-Methyl-Coumarin (AMC) substrate, specific for each enzyme was used as described previously (PCT Patent Application No. WO 00/09543) with some modifications. All enzymes were purchased from Sigma or EMDbiosciences while the substrates were from Bachem.
Each pNA assay included a 2 h enzyme-inhibitor pre-incubation at room temperature followed by addition of substrate and hydrolysis to ˜15% conversion as measured on a Spectramax Pro microplate reader. The cathepsin B assay was initiated by adding substrate to a 10 min enzyme-inhibitor pre-incubation at room temperature, and the assay plate measured immediately using the Cytofluor Series 4000. Compound concentrations varied from 100 to 0.4 μM depending on their potency.
The final conditions for each assay were as follows: […]
The percentage of inhibition was calculated using the formula: [1−((UVinh−UVblank)/(UVctl−UVblank))]×100 […]

[3] = molecular target: T3, HCV NS3/4A protease complex, H77 strain (Hepatitis C virus genotype 1a, UniProt P27958, C1454S/C1711G); experiment: FRET peptide assay to monitor HCV NS3/4A proteolytic activity (H77 strain)
T3 construct: DNA encoding the recombinant HCV NS3/4A protease complex (amino acids 1027 to 1711) for these strains; inferred from the pET21b vector and Ni-NTA purification; made in house; host or cells: Escherichia coli BL21 (DE3), pET21b
T3 sequence (P27958 1027-1711 C1454S/C1711G, one chain of several): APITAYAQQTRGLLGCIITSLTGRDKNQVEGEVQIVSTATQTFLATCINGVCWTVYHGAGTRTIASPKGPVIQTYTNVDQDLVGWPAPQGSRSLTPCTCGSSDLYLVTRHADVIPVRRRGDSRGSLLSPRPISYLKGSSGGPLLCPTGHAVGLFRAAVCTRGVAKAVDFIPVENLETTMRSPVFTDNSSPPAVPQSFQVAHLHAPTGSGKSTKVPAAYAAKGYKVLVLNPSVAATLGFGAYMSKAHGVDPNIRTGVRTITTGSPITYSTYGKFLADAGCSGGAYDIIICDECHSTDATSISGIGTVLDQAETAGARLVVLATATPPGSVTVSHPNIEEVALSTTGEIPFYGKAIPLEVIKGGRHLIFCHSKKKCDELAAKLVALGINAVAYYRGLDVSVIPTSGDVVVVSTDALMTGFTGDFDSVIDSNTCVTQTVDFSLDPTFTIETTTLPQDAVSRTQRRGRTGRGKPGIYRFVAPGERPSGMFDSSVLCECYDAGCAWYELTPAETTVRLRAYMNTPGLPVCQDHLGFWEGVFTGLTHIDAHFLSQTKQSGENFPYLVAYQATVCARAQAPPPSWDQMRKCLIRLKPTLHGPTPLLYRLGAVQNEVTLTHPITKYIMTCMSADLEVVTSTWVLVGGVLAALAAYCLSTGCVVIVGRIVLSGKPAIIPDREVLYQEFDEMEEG
Description: as §1, §2

## CC(C)(C)OC(=O)N[C@H]1CCCCC/C=C\[C@@H]2C[C@@]2(C(=O)NS(=O)(=O)C2CC2)NC(=O)[C@@H]2C[C@@H](OC(=O)c3ccc(C#N)cc3)CN2C1=O [Compound 26, 18-(4-cyanobenzoyloxy)-14-tert-butoxycarbonylamino-4-cyclopropylsulfonylaminocarbonyl-2,15-dioxo-3,16-diazatricyclo-[14.3.0.0^4,6]-nonadec-7-ene]
[1]
  IC50: 0.23 nM
[2]
  IC50: > 100000 nM
[3]
  IC50: 0.53 nM

— patent US7772183B2 (Bristol-Myers Squibb Company, priority 2005, dated 2010)
